Measured values as given in patent US9597407B2, “Targeted antimicrobial moieties” (C3 Jian, Inc., priority 2009, dated 2017).

System: microorganisms
Test: Morphology, biofilm and growth disruption by peptides (Table 5)
Type: cell-based
Parameters: key: A: Peptide aggregates; B: Less hyphal formation; Clumps; Diffuse clumps and small polyps; F: Diffuse growth; H: Thin; I: Growth inhibition; Microcolony formation; Rippled; Small polyps; Thick; W: Halo formation on top, microlonies on bottom
Excerpt: In certain embodiments peptides that induce alterations in phenotype or other biological activities can also be used as antimicrobial effector moieties.

## PF-C293 (IIIILPKIYLVCKTV; Peptide with targeting and/or antimicrobial activity)
F. nucleatum
  Organism, effect (morphology, biofilm and growth disruption): F. nucleatum (T)
P. gingivalis
  Organism, effect (morphology, biofilm and growth disruption): P. gingivalis (R)
S. mutans
  Organism, effect (morphology, biofilm and growth disruption): S. mutans (F)

## PF-432 (FNGDSEFFLCIAF; Peptide with targeting and/or antimicrobial activity)
C. jejuni
  Organism, effect (morphology, biofilm and growth disruption): C. jejuni (D)
E. coli
  Organism, effect (morphology, biofilm and growth disruption): E. coli (R)
E. faecalis
  Organism, effect (morphology, biofilm and growth disruption): E. faecalis (D)
MRSA
  Organism, effect (morphology, biofilm and growth disruption): MRSA (M)
P. aeruginosa
  Organism, effect (morphology, biofilm and growth disruption): P. aeruginosa (A)
S. epidermidis
  Organism, effect (morphology, biofilm and growth disruption): S. epidermidis (M)
S. pneumoniae
  Organism, effect (morphology, biofilm and growth disruption): S. pneumoniae (D)

## PF-196 (TTARYIRRQCHTSITPLSQG; Peptide with targeting and/or antimicrobial activity)
C. jeikeium
  Organism, effect: C. jeikeium (R)
S. epidermidis
  Organism, effect: S. epidermidis (C)

## PF-190 (HFILRKPLLFMIHSLKTGPLDRF; Peptide with targeting and/or antimicrobial activity)
C. jeikeium
  Organism, effect: C. jeikeium (R)
S. epidermidis
  Organism, effect: S. epidermidis (C)

## PF-199 (FPAFSFGAIAGSVSVAR; Peptide with targeting and/or antimicrobial activity)
C. jeikeium
  Organism, effect: C. jeikeium (R)
M. luteus
  Organism, effect: M. luteus (A)
S. epidermidis
  Organism, effect: S. epidermidis (C)

## PF-C214 (GGHKQLVIEPLVSQ; Peptide with targeting and/or antimicrobial activity)
F. nucleatum
  Organism, effect (morphology, biofilm and growth disruption): F. nucleatum (T)

## PF-586 (FFNQANYFFKEF; Peptide with targeting and/or antimicrobial activity)
C. jejuni
  Organism, effect (morphology, biofilm and growth disruption): C. jejuni (D)
E. coli
  Organism, effect (morphology, biofilm and growth disruption): E. coli (C)
E. faecalis
  Organism, effect (morphology, biofilm and growth disruption): E. faecalis (D)
MRSA
  Organism, effect (morphology, biofilm and growth disruption): MRSA (D)
S. epidermidis
  Organism, effect (morphology, biofilm and growth disruption): S. epidermidis (C)
S. pneumoniae
  Organism, effect (morphology, biofilm and growth disruption): S. pneumoniae (D)

## PF-415 (MIDVTIGQKSKTGAFNASYSICFSGENFSF; Peptide with targeting and/or antimicrobial activity)
S. pneumoniae
  Organism, effect: S. pneumoniae (D)

## PF-582 (NLKTIEKECPFCNNKMDIKLKD; Peptide with targeting and/or antimicrobial activity)
E. faecalis
  Organism, effect (morphology, biofilm and growth disruption): E. faecalis (A)

## PF-532 (KFIYKYKLSFIIYKILIQTLTMELNK; Peptide with targeting and/or antimicrobial activity)
E. coli
  Organism, effect (morphology, biofilm and growth disruption): E. coli (C)
E. faecalis
  Organism, effect (morphology, biofilm and growth disruption): E. faecalis (C)
MRSA
  Organism, effect (morphology, biofilm and growth disruption): MRSA (C)
S. pneumoniae
  Organism, effect (morphology, biofilm and growth disruption): S. pneumoniae (C)

## PF-C089 (MPKRHYYKLEAKALQFGLPFAYSPIQLLK; Peptide with targeting and/or antimicrobial activity)
P. gingivalis
  Organism, effect (morphology, biofilm and growth disruption): P. gingivalis (R)

## PF-535 (NIKTRKRALKIIKQHQRSK; Peptide with targeting and/or antimicrobial activity)
P. aeruginosa
  Organism, effect (morphology, biofilm and growth disruption): P. aeruginosa (H)
S. pneumoniae
  Organism, effect (morphology, biofilm and growth disruption): S. pneumoniae (H)

## PF-140 (FHRRVIRASEWALTTRSFSTPLRSAAR; Peptide with targeting and/or antimicrobial activity)
C. albicans
  Organism, effect: C. albicans (B)
C. jeikeium
  Organism, effect: C. jeikeium (D)
C. jejuni
  Organism, effect: C. jejuni (D)
M. luteus
  Organism, effect: M. luteus (R)
MRSA
  Organism, effect: MRSA (M)
P. aeruginosa
  Organism, effect: P. aeruginosa (A)
S. epidermidis
  Organism, effect: S. epidermidis (D)
S. pneumoniae
  Organism, effect: S. pneumoniae (D)

## PF-001 (chain 1 MNNWIIVAQLSVTVINEIIDIMKEKQKGGK; chain 2 MNNWIIVAQLSVTVINEIIDIMKEKQKGGK; Peptide with targeting and/or antimicrobial activity)
C. jeikeium
  Organism, effect: C. jeikeium (D)
M. luteus
  Organism, effect: M. luteus (C)
MRSA
  Organism, effect: MRSA (R)
S. epidermidis
  Organism, effect: S. epidermidis (C)

## PF-059 (TITLKAGIERALHEEVPGVIEVEQVF; Peptide with targeting and/or antimicrobial activity)
C. jejuni
  Organism, effect: C. jejuni (C)

## PF-296 (GAFGMPSIKTNTICGEKGKFISACDAWLSNLK; Peptide with targeting and/or antimicrobial activity)
B. subtilis
  Organism, effect: B. subtilis (C)
S. epidermidis
  Organism, effect: S. epidermidis (C)

## PF-318 (MGRHLWNPSYFVATVSENTEEQIRKYINNQKKQVK; Peptide with targeting and/or antimicrobial activity)
B. subtilis
  Organism, effect: B. subtilis (C)
S. epidermidis
  Organism, effect: S. epidermidis (C)

## PF-220 (VDPADDGTRHIRPEDGDPIEIDE; Peptide with targeting and/or antimicrobial activity)
S. pneumoniae
  Organism, effect: S. pneumoniae (H)

## PF-615 (FLNRFIFYIFTVKTKSALIKNLFLD; Peptide with targeting and/or antimicrobial activity)
C. jejuni
  Organism, effect (morphology, biofilm and growth disruption): C. jejuni (D)
E. coli
  Organism, effect (morphology, biofilm and growth disruption): E. coli (C)
E. faecalis
  Organism, effect (morphology, biofilm and growth disruption): E. faecalis (D)
MRSA
  Organism, effect (morphology, biofilm and growth disruption): MRSA (D)
S. epidermidis
  Organism, effect (morphology, biofilm and growth disruption): S. epidermidis (D)
S. pneumoniae
  Organism, effect (morphology, biofilm and growth disruption): S. pneumoniae (D)

## PF-411 (WVAVAILLNIALQTQLT; Peptide with targeting and/or antimicrobial activity)
C. jejuni
  Organism, effect: C. jejuni (D)
E. coli
  Organism, effect: E. coli (C)
E. faecalis
  Organism, effect: E. faecalis (D)
MRSA
  Organism, effect: MRSA (D)
P. aeruginosa
  Organism, effect: P. aeruginosa (A)
S. epidermidis
  Organism, effect: S. epidermidis (C)
S. pneumoniae
  Organism, effect: S. pneumoniae (D)

## KTPNDKIHKTIIIKHIIL [PF-533]
E. coli
  Organism, effect (morphology, biofilm and growth disruption): E. coli (R)
E. faecalis
  Organism, effect (morphology, biofilm and growth disruption): E. faecalis (C)
MRSA
  Organism, effect (morphology, biofilm and growth disruption): MRSA (H)
S. epidermidis
  Organism, effect (morphology, biofilm and growth disruption): S. epidermidis (H)
S. pneumoniae
  Organism, effect (morphology, biofilm and growth disruption): S. pneumoniae (C)

## EILNNNQVIKELTMKYKTQFESNLGGWTARARR [PF-580]
M. luteus
  Organism, effect (morphology, biofilm and growth disruption): M. luteus (C)
MRSA
  Organism, effect (morphology, biofilm and growth disruption): MRSA (M)
S. epidermidis
  Organism, effect (morphology, biofilm and growth disruption): S. epidermidis (M)
S. pneumoniae
  Organism, effect (morphology, biofilm and growth disruption): S. pneumoniae (C)

## KNKKQTDILEKVKEILDKKKKTKSVGQKLY [PF-538]
S. pneumoniae
  Organism, effect (morphology, biofilm and growth disruption): S. pneumoniae (H)

## PF-670 (chain 1 TVIVAPMHSGV; chain 2 TVIVAPMHSGV; Peptide with targeting and/or antimicrobial activity)
B. subtilis
  Organism, effect (morphology, biofilm and growth disruption): B. subtilis (H)
S. pneumoniae
  Organism, effect (morphology, biofilm and growth disruption): S. pneumoniae (H)

## PF-293 (YDPLK; Peptide with targeting and/or antimicrobial activity)
S. epidermidis
  Organism, effect: S. epidermidis (C)

## PF-565 (RAEAEAQRQAEADAKRKAEEAARL; Peptide with targeting and/or antimicrobial activity)
B. subtilis
  Organism, effect (morphology, biofilm and growth disruption): B. subtilis (D)
MRSA
  Organism, effect (morphology, biofilm and growth disruption): MRSA (C)

## PF-342 (AFSGVYKTLIVYTRRK; Peptide with targeting and/or antimicrobial activity)
B. subtilis
  Organism, effect: B. subtilis (C)
S. epidermidis
  Organism, effect: S. epidermidis (C)

## PF-178 (EVYSSPTNNVAITVQNN; Peptide with targeting and/or antimicrobial activity)
E. coli
  Organism, effect: E. coli (C)
MRSA
  Organism, effect: MRSA (M)
S. epidermidis
  Organism, effect: S. epidermidis (D)
S. pneumoniae
  Organism, effect: S. pneumoniae (D)

## PF-264 (MQSLSNRQSLIASYILMGIFLSFGYPPASLSKFFCRLSHL; Peptide with targeting and/or antimicrobial activity)
M. luteus
  Organism, effect: M. luteus (H)

## PF-290 (MVHDMTNGTLIIVKH; Peptide with targeting and/or antimicrobial activity)
S. epidermidis
  Organism, effect: S. epidermidis (C)

## PF-610 (VFLKLKTSKIDLASIIFYP; Peptide with targeting and/or antimicrobial activity)
C. jejuni
  Organism, effect (morphology, biofilm and growth disruption): C. jejuni (D)
E. coli
  Organism, effect (morphology, biofilm and growth disruption): E. coli (C)
E. faecalis
  Organism, effect (morphology, biofilm and growth disruption): E. faecalis (D)
MRSA
  Organism, effect (morphology, biofilm and growth disruption): MRSA (D)
S. epidermidis
  Organism, effect (morphology, biofilm and growth disruption): S. epidermidis (C)
S. pneumoniae
  Organism, effect (morphology, biofilm and growth disruption): S. pneumoniae (D)

## PF-612 (GTTLKYGLERQLKIDIHPEITIINLNGGADEFAKL; Peptide with targeting and/or antimicrobial activity)
E. coli
  Organism, effect (morphology, biofilm and growth disruption): E. coli (C)
M. luteus
  Organism, effect (morphology, biofilm and growth disruption): M. luteus (A)
MRSA
  Organism, effect (morphology, biofilm and growth disruption): MRSA (C)
P. mirabilis
  Organism, effect (morphology, biofilm and growth disruption): P. mirabilis (C)
S. epidermidis
  Organism, effect (morphology, biofilm and growth disruption): S. epidermidis (C)
S. mutans
  Organism, effect (morphology, biofilm and growth disruption): S. mutans (F)
S. pneumoniae
  Organism, effect (morphology, biofilm and growth disruption): S. pneumoniae (C)

## FESKILNASKELDKEKKVNTALSFNSHQDFAKAYQNGKI [PF-606]
C. albicans
  Organism, effect (morphology, biofilm and growth disruption): C. albicans (B)
MRSA
  Organism, effect (morphology, biofilm and growth disruption): MRSA (I)
S. epidermidis
  Organism, effect (morphology, biofilm and growth disruption): S. epidermidis (I)
S. mutans
  Organism, effect (morphology, biofilm and growth disruption): S. mutans (I)
S. pneumoniae
  Organism, effect (morphology, biofilm and growth disruption): S. pneumoniae (H)

## PF-485 (KNSMSRSIALID; Peptide with targeting and/or antimicrobial activity)
S. pneumoniae
  Organism, effect (morphology, biofilm and growth disruption): S. pneumoniae (A)
